The values that follow come from US9351998B2, “Methods of nourishing animals” (MariCal, Inc., priority 2008, dated 2016).

Entries after “also recorded” stand apart in the source; their conditions may differ.

The subject of one test is chick jejunal CaSR. Kind of test: phospho-ERK immunoblot of HEK cells transfected with chick jejunal CaSR cDNA after increase in extracellular Ca2+. To be noted: extracellular Ca2+ increased 0.5 mM to 10 mM. In kind it is cell-based, chicken. Here is the method:
HEK-293 cells were plated into 6-well plates so that the cells were 90% confluent at the time of transfection. The linearized and non-linearized plasmids were ethanol precipitated and quantified spectrophotometrically. A ratio of DNA to lipofectamine of 1:3.5 (4 μg of DNA and 14 μl Lipofectamine 2000) was used for the transfection procedure. To provide a negative control, only Lipofectamine was added to some HEK cells. After exposure to lipofectamine, hygromycin B (400 μg/ml) was used to select for HEK cells that had been transfected since the plasmid containing the putative CaSR sequence also contained a hygromycin resistance element.
At the start of hygromycin selection, flasks were about 40% confluent. All flasks experienced a high percentage of die off cells. After an interval of 10 days, all the cells in the negative control flasks were dead. […] Linear flask 1 and non-linear flask 1 were trypsinized by addition of 200 μl trypsin to redistribute dense colonies and prevent overcrowding 10 days after the start of hygromycin selection. New complete media was added containing 400 μg/ml hygromycin. At day 14, flasks had multiple colonies that were well spread out and were beginning to look overcrowded. Each flask was trypsinized, centrifuged and re-plated in a new flask, still under hygromycin selection. At day 17, transfected HEK cells were 60% confluent. […]
On the technique in general: A western blot detects proteins with antibodies after separation by electrophoresis.

The test system of the next test is avian CaSR. As to the kind of experiment: FURA2 ratio imaging fluorimetry of HEK cells stably expressing avian (chicken) CaSR. In kind it is cell-based. The source says:
(§1) All methods and equipment utilized to perform experiments on HEK cells have been reported previously (Gama, L. and Breitwieser, G. E. 1998. A carboxyl-terminal domain controls the cooperativity for extracellular Ca2+ activation of the human calcium sensing receptor. A study with receptor-green fluorescent protein fusions. J. Biol. Chem. 273, 29712-29718; Bai, M., Quinn, S., Trivedi, S., Kifor, 0., Pearce, S. H., Pollak, M. R., Krapcho, K., Hebert, S. C. and Brown, E. M. 1996. Expression and characterization of inactivating and activating mutations in the human Ca2+o-sensing receptor. J. Biol. Chem. 271, 19537-19544). Untransfected HEK cells or, alternatively, cells transfected and expressing CaSR protein were cultured in Dulbecco's Modified Eagle Medium containing 10% fetal bovine serum and 1% penicillin-streptomycin in 75 cm^2 flasks until they reached confluence. Media was removed from the flasks and cells were loaded by exposure to Loading Buffer (125 mM NaCl, 4 mM KCl, 1.0 mMCaCl2, 1.0 mM MgCl2, 1 mM NaH2PO4, 20 mM HEPES, 1 gm/liter bovine serum albumin, and 1 gm/l glucose, pH ˜7.4, osmolality ˜285) containing 4.1 micromolar FURA2-AM (Molecular Probes Inc. Eugene, Oreg.) for 2 hr. Cells were then scraped from the surface of the flask using a standard cell scraper (Costar 3010, Corning Inc.). Cells were then pelleted from the suspension by low speed centrifugation to remove loading buffer and rinsed twice to remove extracellular FURA2 dye by two sequential suspensions and pelleting steps using low speed centrifugation. Immediately prior to the start of the experiment, cells were resuspended in various experimental buffers for analyses as described below. The Standard Experimental Buffer used for many studies was composed of: 125 mM NaCl, 4 mM KCl, 0.5 mMCaCl2, 0.5 mM MgCl2, 20 mM HEPES, 1 g/l glucose, pH ˜7.4, osmolality ˜285. All other buffers were variations on this basic composition where specific components within the Standard Experimental Buffer were varied while the remaining components were held constant.
(§2) Cell suspensions consisting of a total volume of 3 ml were analyzed in a PTI fluorimeter (PTI Model 814 Photomultiplier Detection System equipped with SC-500 Shutter Controller and PTI Driver and Analysis Software) within approximately 20 min after exposure to experimental buffers. Data was acquired using standard ratio image analysis as described previously using a data acquisition rate of 1.3 sec. for 500 or 1000 second intervals.
(§3) In selected experiments, the detergent Triton X-100 was added in order to lyse the cells and quantify differences in FURA2 ratio fluorescence. Triton X-100 was added to the cells to obtain a maximal fluorescence signal from the FURA2 for purposes of quantification.
The ability of the CaSR modulator MC0100 to potentiate the response of avian and mammalian CaSRs to the chelated mineral amino acid complex, ZnPro, was tested. For avian CaSR experiments, three individual aliquots from a single pool of HEK cells that stably express the recombinant avian CaSR protein were used for ratio imaging fluorimetry assays of CaSR activation generally as described in Example 6 herein. […] In all aliquots, the detergent Triton X-100 was added as the last addition to lyse the cells (FIG. 29A).
From a single pool of HEK cells stably expressing the avian CaSR, aliquots of cells were removed and analyzed using ratio imaging fluorimetry generally as described in Example 6 herein. After a standard addition of Ca++ to a final concentration of 2.5 mM, either 0.0025%, 0.025% or 0.25% Zinc Proteinate was added followed by a second addition of Ca++ to a final concentration of 7.5 mM. Subsequently, an aliquot of the detergent Triton X-100 was added to lyse the cells. […] The magnitude of the subsequent CaSR response to Ca++ was reduced via increasing Zn Proteinate stimulation.
Fluorimetry analysis was performed on HEK cells expressing the recombinant chicken CaSR protein generally as described in Example 6 herein.

The target in a further test is T1, mammalian CaSR (Homo sapiens, UniProt P41180).
T1 construct: expressed in transfected cells; host or cells: HEK cells stably expressing the mammalian CaSR
T1 sequence (P41180 20-1078): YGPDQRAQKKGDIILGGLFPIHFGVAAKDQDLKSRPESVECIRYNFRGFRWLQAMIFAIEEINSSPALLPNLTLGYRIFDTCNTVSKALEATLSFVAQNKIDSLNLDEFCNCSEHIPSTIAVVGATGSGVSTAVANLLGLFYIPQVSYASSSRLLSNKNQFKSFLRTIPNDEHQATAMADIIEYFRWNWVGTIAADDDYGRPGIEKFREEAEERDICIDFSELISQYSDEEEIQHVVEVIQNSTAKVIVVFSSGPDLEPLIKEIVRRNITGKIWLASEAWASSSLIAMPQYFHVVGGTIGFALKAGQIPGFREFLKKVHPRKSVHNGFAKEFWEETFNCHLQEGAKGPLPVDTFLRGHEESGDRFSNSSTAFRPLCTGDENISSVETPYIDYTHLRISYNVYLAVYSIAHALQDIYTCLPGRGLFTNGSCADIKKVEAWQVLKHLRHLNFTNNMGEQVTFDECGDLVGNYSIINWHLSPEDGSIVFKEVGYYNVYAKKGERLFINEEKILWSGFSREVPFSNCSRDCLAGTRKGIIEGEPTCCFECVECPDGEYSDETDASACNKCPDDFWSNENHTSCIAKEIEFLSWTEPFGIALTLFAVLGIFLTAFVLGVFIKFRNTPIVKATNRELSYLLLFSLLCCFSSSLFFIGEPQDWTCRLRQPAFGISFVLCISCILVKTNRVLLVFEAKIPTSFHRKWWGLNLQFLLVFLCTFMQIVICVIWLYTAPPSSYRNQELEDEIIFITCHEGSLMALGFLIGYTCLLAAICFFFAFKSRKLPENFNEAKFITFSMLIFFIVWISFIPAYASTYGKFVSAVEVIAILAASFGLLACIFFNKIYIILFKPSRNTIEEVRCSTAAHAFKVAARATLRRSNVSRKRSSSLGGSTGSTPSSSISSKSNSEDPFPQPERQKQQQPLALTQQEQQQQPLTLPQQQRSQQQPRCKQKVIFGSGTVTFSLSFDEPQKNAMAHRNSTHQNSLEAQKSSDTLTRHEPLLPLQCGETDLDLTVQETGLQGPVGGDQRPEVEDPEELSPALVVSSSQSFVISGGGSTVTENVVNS
As to the kind of experiment: FURA2 ratio imaging fluorimetry of HEK cells stably expressing mammalian CaSR. The format is cell-based.
From the text: as §1, §2, §3
Experiments on HEK cells were performed generally as described in Example 6 herein. […] Subsequent addition of Ca2+ to a final concentration of 5 mM produced an additional response (see FIG. 26A). No response was observed upon addition of 0.025% Mintrex Zn after the addition of experimental buffer (EB) (see FIG. 26B). […] In addition, the magnitude of the CaSR response to 5 mM Ca2+ was diminished by previous addition of Mintrex Zn.
For mammalian CaSR experiments, two individual aliquots from a single pool of HEK cells that stably express the recombinant mammalian CaSR protein were used for ratio imaging fluorimetry assays of CaSR activation generally as described in Example 6 herein. Addition of Ca++ to a final concentration of 2.5 mM produced a CaSR response that was also followed by responses after subsequent additions of 0.025% Zn proteinate followed by Ca++ to a final concentration of 7.5 mM (FIG. 29B). […] There was also a response to a subsequent dose of Ca++ to a final concentration of 7.5 mM (FIG. 29B). In both tracings, the detergent Triton X-100 was added as a final step to lyse the cells.
Experiments on HEK cells were performed generally as described in Example 6 herein. […]

Test [1] deals with T2, recombinant human CaSR protein (Homo sapiens, UniProt P41180).
T2 construct: expressed in transfected cells; host or cells: HEK cells
T2 sequence (P41180 20-1078): T1 sequence (P41180 20-1078)
Kind of test: FURA2 ratio fluorimetry of HEK cells expressing recombinant human CaSR. The format is cell-based.
From the text: as §1, §2, §3

In a further test the target is recombinant CaSR protein (Homo sapiens, UniProt P41180). The following applies: concentrations of spermine and calcium present in sow's milk (FIG. 20C); cited from earlier work.
The next test deals with chicken CaSR. As to the kind of experiment: CaSR dependent ERK 1/2 phosphorylation (Western blot) in HEK cells transfected with chicken CaSR. In kind it is cell-based. The following applies: various concentrations of bacitracin Zn. The procedure: HEK cells transfected with the chicken CaSR were cultured under standard conditions (DMEM with 10% FCS). Confluent flasks were serum-starved overnight in DMEM supplemented with 0.2% BSA and pre-incubated for 60 min at 37° C. in the following medium: 125 mM NaCl, 4 mM KCl, 20 mM Hepes, 0.1% glucose, 0.8 mM NaH2PO4, 1 mM MgCl2, 0.1% BSA, 0.5 mM CaCl2, pH 7.45. The cells were then incubated in the same medium without BSA in the presence of different mineral chelates at different concentrations (see below) for 15 min at 37° C. At the end of the incubation treatment media was removed and cells were washed with PBS and than lysed in 250 microliter of M-PER lysis buffer (Pierce Chemical Company, Rockford, Ill.) containing 10 ul/ml of protease inhibitors (Pierce Chemical Company, Rockford, Ill.). Cell lysates were centrifuged for 10 min at 4° C. at 14,000×g. The protein content in the supernatants was analyzed using the BCA Protein Assay system from Pierce Chemical Company, Rockford, Ill. Equal amounts of protein (20 ug) were combined with 4× loading buffer and […] DTT, heated to 95° C., separated by SDS gel electrophoresis and electrotransferred to PVD membranes. The membranes were incubated in 1% BSA in TBS-T (TRIS-buffered saline containing Tween 20 at 0.1%) overnight. After 4 washes in TBS-T the membranes were incubated with primary antibody (anti phosphoERK at 1:400 dilution; this antibody recognizes the phosphorylated form of ERK 1/2) for 1.5 hours at room temperatures, washed 4 times and incubated with secondary antibody (anti mouse at 1:50,000 dilution). After 4 washes in TBS-T the membranes were developed using the ECL Western Blotting system.
Chain of chicken CaSR (as listed by the source): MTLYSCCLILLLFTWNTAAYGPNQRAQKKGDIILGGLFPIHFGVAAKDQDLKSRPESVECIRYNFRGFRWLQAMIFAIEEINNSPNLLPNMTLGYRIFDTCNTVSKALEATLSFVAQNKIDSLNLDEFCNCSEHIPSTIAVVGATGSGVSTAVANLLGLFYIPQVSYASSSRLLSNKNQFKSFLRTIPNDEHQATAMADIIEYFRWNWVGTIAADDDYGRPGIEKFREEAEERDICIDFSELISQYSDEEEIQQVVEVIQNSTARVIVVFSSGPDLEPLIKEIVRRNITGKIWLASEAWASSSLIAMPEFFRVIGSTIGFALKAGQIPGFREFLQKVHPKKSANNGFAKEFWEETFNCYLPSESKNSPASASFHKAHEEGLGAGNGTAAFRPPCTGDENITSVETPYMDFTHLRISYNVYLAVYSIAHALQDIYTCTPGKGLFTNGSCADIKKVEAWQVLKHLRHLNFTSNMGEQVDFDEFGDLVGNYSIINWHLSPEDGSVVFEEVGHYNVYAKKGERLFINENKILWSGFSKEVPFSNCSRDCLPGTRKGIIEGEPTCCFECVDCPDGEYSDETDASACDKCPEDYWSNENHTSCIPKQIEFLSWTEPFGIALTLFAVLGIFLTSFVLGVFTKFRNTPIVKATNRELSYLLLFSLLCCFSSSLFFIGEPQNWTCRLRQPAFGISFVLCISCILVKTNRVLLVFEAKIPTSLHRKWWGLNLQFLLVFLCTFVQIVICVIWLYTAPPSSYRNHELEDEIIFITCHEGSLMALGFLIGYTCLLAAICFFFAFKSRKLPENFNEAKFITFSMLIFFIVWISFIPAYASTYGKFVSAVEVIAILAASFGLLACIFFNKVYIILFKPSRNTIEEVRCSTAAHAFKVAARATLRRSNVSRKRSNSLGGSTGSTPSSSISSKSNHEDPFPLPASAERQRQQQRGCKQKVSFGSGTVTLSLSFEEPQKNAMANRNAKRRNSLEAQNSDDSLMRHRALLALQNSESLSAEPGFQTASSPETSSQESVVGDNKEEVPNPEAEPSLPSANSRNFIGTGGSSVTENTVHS
The experiments described in FIGS. 34 A and B used the following metal chelate treatments: ZnProteinate, CuProteinate and MnProteinate (Balchem Corporation, New Hampton, N.Y.) at the following concentrations: 0.025% and 2.5%, or at a concentration of 0.025% with 1 micromolar MC 0100 (a calcimimetic); or various concentrations of bacitracin Zn.

As to `[Ca+2]` [Ca2+], the “activation of the ERK kinase pathway (phospho-ERK)” value in the test on chick jejunal CaSR was “selective activation”. Turning to `N[C@@H](Cc1ccccc1)C(=O)O` [L-Phenylalanine], the “effect on Mintrex Zn inhibition of CaSR response to Ca++ stimulus” value in the test with avian CaSR (3 mM L-Phe after 0.25% Mintrex Zn, Ca++ to 7.5 mM) was “reversed Mintrex-Zn's inhibition”; at mammalian CaSR (3 mM L-Phe after 0.025% Mintrex Zn, 1.5 mM Ca++, Ca++ to 5 mM) it was “reversed Mintrex-Zn's inhibition”. On to `CC(C)(Cc1ccc2ccccc2c1)NC[C@@H](O)COc1cccc(Cl)c1C#N` [MC106], for which the “effect of prior modulator on CaSR response to Zn Proteinate” value with avian CaSR (1 micromolar MC106, 0.25% Zinc Proteinate) is listed as “reduced the avian CaSR's response”. Also, at mammalian CaSR (1 micromolar MC106 added first), the “effect on CaSR response to 2.5 mM Ca2+” value is on record as “eliminated” and the “effect on subsequent CaSR response to 5 mM Ca2+” value is “reduced”. The “CaSR response to the modulator itself” value at mammalian CaSR (1 micromolar MC106 in DMSO) is “did not itself produce a CaSR response; also recorded: did not elicit a CaSR response”. Also, at mammalian CaSR (initial addition of 1 micromolar MC106), the “effect on CaSR responses to 0.25% Mintrex Zn or 5.5 mM Ca2+” value is “reduced or eliminated responses”. The “effect of modulator on CaSR stimulation by Mintrex Zn” value at mammalian CaSR (pre-addition of MC106 (FIG. 30D)) was “suppress the stimulation”. With `NCCCN` [diaminopropane], in test [1], the “activation of recombinant human CaSR (intracellular calcium)” value (“activation … (intracellular calcium)” for short) was “sharp increase in intracellular calcium”. The same measure, in the same setting: the result for `N=C(N)NCCC[C@H](N)C(=O)O.NCC(=O)O.NCC(=O)O` [gly-gly-arg, glycine-glycine-arginine] reads “significant activation”. Regarding `NCCCNCCCCNCCCN` [spermine], the “activation of recombinant CaSR” value on recombinant CaSR protein is recorded as “activated”.

Turning to Casein, the “activation … (intracellular calcium)” value in test [1] is listed as “acts as an agonist”. bacitracin Zn: the “ERK1/2 phosphorylation as compared to Ca++ with MC0100” value in the test with chicken CaSR is “increase in ERK1/2 phosphorylation”. Turning to “bovine serum albumin: a protein that also binds calcium”, in test [1], the “activation … (intracellular calcium)” value was “has no effect”.
